Laboratory results from US20130315920A1, “Cross Protective Epitopes of Aspergillus Fumigatus and Candida Albicans” (Cell Medica Limited, priority 2010, published 2013).

Legend:
PBMC = test: In vitro expansion of Crf1 p41-specific T-cell lines from PBMC; type: cell-based, human
Procedure: Cross-reactive Crf1 p41-specific T-cells show a diverse T-cell receptor (TCR) Vβ repertoire, multiple MHC class II restriction and high proliferative capacity. (a) The TCR Vβ repertoire of p41-specific CD4^+ T-cell clones is divers in different donors. TCR chains were determined by flowcytometry, PCR and/or nucleotide sequence analysis. *TCRs differ on the level of nucleotide sequence. Nomenclature is according to Wei et al^53. (b) The Crf1 p41 epitope can be presented by HLA-DRB1*03, 04 and 13 and allows cross-recognition between HLA-DRB1*03 and 13. The HLA restriction of Crf1 p41-specific T-cell clones from 5 different donors was determined by stimulation with peptide-pulsed unmatched or partially matched LCL. IFN-γ values are given after subtraction of the negative control. (c) Crf1 p41-specific T-cells are not terminally differentiated and can be rapidly expanded in vitro. […] T-cells were restimulated with autologous peptide-pulsed monocytes on day 7 and culture medium was supplemented with IL-2, IL-7 and IL-15 (representative experiments, n≧3).
For T-cell expansion, 1×10^7 PBMC were stimulated with 5 μg/ml peptide in the presence of 5 U/ml IL-2. On d7, T-cells were restimulated with autologous peptide-pulsed monocytes at a R:S ratio of 5:1 and 10 ng/ml IL-7 and IL-15 (R&D systems) were supplemented every other day until d14.
The TCR Vβ repertoire was analyzed flowcytometrically (IOTest Beta Mark Kit, Beckman Coulter), by PCR^43 and sequence analysis^44. A PE-conjugated Crf1 p41-specific HLA-DRB1*0401 MHC class II tetramer was used according to the manufacturers' instructions (Beckman Coulter).

HLA-DRB1*03 = test: HLA restriction with peptide-pulsed partially matched LCL (IFN-γ ELISA); type: cell-based, human; details: 10^−3 to 1 ug/ml peptide
Procedure: (§1) To evaluate the utility of the Crf1 p41 epitope for potential clinical application, we defined the HLA restriction of Crf1 p41-specific CD4^+ T clones from different donors by stimulation with peptide-pulsed partially matched LCLs. […] As presentation of the Crf1 p41 peptide could also be mediated by other MHC class II alleles, we verified the HLA restriction by stimulation of PBMC from additional donors.
(§2) HLA restriction was analyzed with partially matched allogeneic EBV-lymphoblastoid cell lines (LCL) (provided by Patricia Comoli and Inge Jedema) pulsed with 10^−3 to 1 ug/ml peptide using IFN-γ ELISA.

HLA-DRB1*13 = test: as above; type: cell-based, human; details: for Presentation / binding by HLA-DRB1*13: 10^−3 to 1 ug/ml peptide
Procedure: as §1, §2

HLA-DRB1*04 = test: as above; type: cell-based, human; details: 10^−3 to 1 ug/ml peptide
Procedure: as §1, §2

C. albicans = test: Peptide-specific T-cell clones stimulated with inactivated C. albicans yeast; type: cell-based, Candida albicans
Text: A. fumigatus Crf1 p41-specific T-cell clones are cross-reactive to C. albicans and can be activated by different clinical isolates of both fungi. (a) All A. fumigatus Crf1 p41-specific T-cell clones from different donors respond to stimulation with inactivated C. albicans yeast. IFN-γ values are given after subtraction of the negative control. Shown is 1 clone per antigen and donor (representative experiments, n≧3). (b) A. fumigatus Crf1 p41-specific T-cell clones respond to different inactivated clinical isolates of germinating A. fumigatus conidia and C. albicans yeast.
T-cell cloning was performed as described in below. T-cell clones were stimulated either with mature peptide-pulsed (2.5 μg/ml) or Crf1 mRNA-transfected DC, immature DC incubated for 24 h with A. fumigatus cell extract (20 μg/ml) in the presence of cytokine maturation cocktail or immature DC incubated for 24 h with inactivated A. fumigatus or C. albicans fungus (multiplicity of infection 3) in a R:S ratio of 5:1.
Fungal extracts were generated as described^48 and protein content was measured by Bradford protein assay (Perbio Science) according to the manufacturers' instructions. For inactivated fungus Aspergillus conidia were inoculated in growth medium^49 and cultured for 0, 4, 8 or 12 h. Candida species were cultured for 24 h. Fungi were inactivated with 70% ethanol. Ethanol-inactivated fungi and extracts were validated for sterility by subculturing on Sabouraud dextrose agar.

CD4^+ spleen cells = test: Proliferation assay of purified CD4+ spleen cells ([3H]thymidine); type: cell-based; details: mice untreated or vaccinated with A. fumigatus or C. albicans; 5 μg/mL peptide, 3 days
Procedure: A. fumigatus Crf1 protein mediates cross-protection to C. albicans. Mice were injected intranasally with resting A. fumigatus conidia 14 days before infection, or with purified Crf1 protein and murine CpG oligodeoxynucleotide 1862 14, 7 and 3 days before intragastric infection with C. albicans. Note (a) the reduced inflammatory cell recruitment and acanthosis in mice vaccinated with A. fumigatus conidia or Crf1 protein as opposed to control mice shown in FIG. 5a and c and (b) the increase in protective TH1 and regulatory T-cell transcription factors and cytokine levels. […] The results are expressed as mean cpm±SEM of triplicate cultures. […]
DC (1×10^5) and CD4^+ T-cells (5×10^5) were purified from spleens of mice untreated or vaccinated with A. fumigatus or C. albicans, by magnetic separation of MicroBeads (Miltenyi Biotec) and cocultured in round-bottom, 96-well plates in 200 μl complete medium, with and without anti-CD3ε antibody (clone 145-2C11; BD PharMingen), heat-inactivated Aspergillus or Candida (at a cell:fungi ratio of 2:1), 5 μg/mL of Crf1 p41 peptide. […] Incorporation into cellular DNA was measured by liquid scintillation counting. The results are expressed as mean cpm±SEM of triplicate cultures.

With “HTYTIDWTKDAVTWS (Peptide found in the Crf1 protein of Aspergillus fumigatus) [p41, Crf1 aa 161-175]” the “Frequency of antigen-specific cells by HLA-DRB1*04 restricted tetramer (median)” value (PBMC; after 14 days expansion) was 50.6%, the “Frequency of antigen-specific cells by HLA-DRB1*04 restricted tetramer (range)” value (PBMC; after 14 days expansion) was 42-63% and the “Cell number after expansion (median)” value (PBMC; from 10^7 PBMC within 14 days) was 3.5×10^7 cells. For the same sequence, the “Cell number after expansion (range)” value (PBMC; from 10^7 PBMC within 14 days) was 3−4.9×10^7 cells, the “Cytokine production and proliferation of expanded T-cell lines” value (PBMC; upon antigen stimulation) was “produced high amounts of TH1 cytokines and proliferated upon antigen stimulation” and the “Presentation / binding by HLA-DRB1*03” value (HLA-DRB1*03) was “presentation of the Crf1 p41 is mediated by HLA-DRB1*03, 04 and 13”. For the same sequence, the “Presentation / binding by HLA-DRB1*03” value (HLA-DRB1*03; listed as HTYTIDWTKDAVTWS) was “has been shown to bind to HLA-DRB1*03, HLA-DRB1*13 and HLA-DRB1*04”, the “Cross-recognition between HLA-DRB1*03 and 13” value (HLA-DRB1*13) was “in some instances DRB1*03-restricted TCRs might be able to recognize p41 peptide presented by DRB1*13 and vice versa” and the “Presentation / binding by HLA-DRB1*13” value (HLA-DRB1*13) was “presentation of the Crf1 p41 is mediated by HLA-DRB1*03, 04 and 13”. The “Presentation / binding by HLA-DRB1*13” value (HLA-DRB1*13; listed as HTYTIDWTKDAVTWS) was “has been shown to bind to HLA-DRB1*03, HLA-DRB1*13 and HLA-DRB1*04”, the “Presentation / binding by HLA-DRB1*04” value (HLA-DRB1*04) was “presentation of the Crf1 p41 is mediated by HLA-DRB1*03, 04 and 13” and the “Presentation / binding by HLA-DRB1*04” value (HLA-DRB1*04; listed as HTYTIDWTKDAVTWS) was “has been shown to bind to HLA-DRB1*03, HLA-DRB1*13 and HLA-DRB1*04”. The “Cross-reactivity with different clinical isolates of A. fumigatus and C. albicans” value (C. albicans; clinical isolates) was “could further confirm this cross-reactivity of the Crf1 p41 epitope”, the “Cross-reactivity of peptide-specific T-cell clones to C. albicans” value (C. albicans; inactivated C. albicans yeast, established strain) was “All p41-specific T-cell clones of all donors recognized and responded to C. albicans” and the “Antigen-specific proliferation of CD4+ spleen cells” value (CD4^+ spleen cells) was “cross-protection could be mediated by T-cells recognizing the same epitope p41”.
